Laboratory results reported in patent publication US8722589B2, “Use of 1-alkyl-5-oxopyrrolidine-3-carboxylic esters as gas hydrate inhibitors with improved biodegradability” (Clariant Finance (BVI) Limited, priority 2007, dated 2014).

assay: Kinetic gas hydrate inhibition in stirred steel autoclave (water/natural gas); details: 5000 ppm based on water phase; 50 bar natural gas; cooled 20° C. to 4° C.; water:gas 20:80
Procedure: (§1) To investigate the inhibiting action of the 1-alkyl-5-oxopyrrolidine-3-carboxylic esters, a stirred steel autoclave with temperature control, pressure and torque sensor of capacity 450 ml was used. For studies of kinetic inhibition, the autoclave was filled with distilled water and gas in a volume ratio of 20:80; for studies of agglomerate inhibition, condensate was additionally added. Subsequently, 50 bar of natural gas were injected.
At first, a pressure decrease corresponding to the thermal compression of the gas is observed. When the formation of gas hydrate nuclei occurs during the cooling time, the pressure measured falls, and a rise in the torque measured and a slight increase in the temperature are observed. […] When the mixture is heated, the gas hydrates decompose, so that the starting state of the experimental series is attained.
(§2) The measure used for the inhibiting action of the product is the time from the attainment of the minimum temperature of 4° C. until the first gas absorption (Tind) or the time until the torque rises (Tagg). Long induction times or agglomeration times indicate an effect as a kinetic inhibitor. The torque measured in the autoclave serves, in contrast, as a parameter for the agglomeration of the hydrate crystals.
Composition of the natural gas used:
The dosage in all tests was 5000 ppm based on the water phase.

“dipentaerythrityl tetra(1-isobutyl-5-oxopyrrolidine-3-carboxylate) [Example 14]” and CCCCC(CC)COC(=O)C1CC(=O)N(C)C1 (stereo not shown) [Example 2, 2-ethylhexyl 1-methyl-5-oxopyrrolidine-3-carboxylate] are within 1.5-fold of each other in “Tagg (time until the torque rises)” value: 15.9 h for the first, 11.7 h for the second.

CN1CC(C(=O)OCC(CO)(CO)COC(=O)C2CC(=O)N(C)C2)CC1=O (stereo not shown) [Example 4, pentaerythritol di(1-methyl-5-oxopyrrolidine-3-carboxylate)] and CN1CC(C(=O)OCC(COC(=O)C2CC(=O)N(C)C2)OC(=O)C2CC(=O)N(C)C2)CC1=O (stereo not shown) [Example 3, glyceryl tri(1-methyl-5-oxopyrrolidine-3-carboxylate)] are within 1.5-fold of each other in “Tagg (time until the torque rises)” value: 11.5 h for the first, 12.5 h for the second.

CCCCOCCOCCOCCOC(=O)C1CC(=O)N(C)C1 (stereo not shown) [Example 6, butyltriglycol 1-methyl-5-oxopyrrolidine-3-carboxylate] and CCCCC(CC)COC(=O)C1CC(=O)N(CC(C)C)C1 (stereo not shown) [Example 11, 2-ethylhexyl 1-isobutyl-5-oxopyrrolidine-3-carboxylate] are within 1.5-fold of each other in “Tagg (time until the torque rises)” value: 13.4 h for the first, 18.3 h for the second.

CCCCOCCOCCOCCOC(=O)C1CC(=O)N(CC(C)C)C1 (stereo not shown) [Example 15, butyltriglycol 1-isobutyl-5-oxopyrrolidine-3-carboxylate] and CC(C)CN1CC(C(=O)OCC(COC(=O)C2CC(=O)N(CC(C)C)C2)OC(=O)C2CC(=O)N(CC(C)C)C2)CC1=O (stereo not shown) [Example 12, glyceryl tri(1-isobutyl-5-oxopyrrolidine-3-carboxylate)] are within 1.5-fold of each other in “Tagg (time until the torque rises)” value: 17.2 h for the first, 18.8 h for the second.

CC(C)COC(=O)C1CC(=O)N(C)C1 (stereo not shown) [Example 1, isobutyl 1-methyl-5-oxopyrrolidine-3-carboxylate] and CN1CC(C(=O)OCC(CO)(COCC(CO)(COC(=O)C2CC(=O)N(C)C2)COC(=O)C2CC(=O)N(C)C2)COC(=O)C2CC(=O)N(C)C2)CC1=O (stereo not shown) [Example 5, dipentaerythrityl tetra(1-methyl-5-oxopyrrolidine-3-carboxylate)] are within 1.5-fold of each other in “Tagg (time until the torque rises)” value: 11.0 h for the first, 10.1 h for the second.

CC(C)CN1CC(C(=O)OCC(CO)(CO)COC(=O)C2CC(=O)N(CC(C)C)C2)CC1=O (stereo not shown) [Example 13, pentaerythrityl di(1-isobutyl-5-oxopyrrolidine-3-carboxylate)] and CC(C)COC(=O)C1CC(=O)N(CC(C)C)C1 (stereo not shown) [Example 10, isobutyl 1-isobutyl-5-oxopyrrolidine-3-carboxylate] are within 1.5-fold of each other in “Tagg (time until the torque rises)” value: 17.4 h for the first, 17.0 h for the second.

“dipentaerythrityl tetra(1-isobutyl-5-oxopyrrolidine-3-carboxylate) [Example 14]” and CCCCC(CC)COC(=O)C1CC(=O)N(C)C1 (stereo not shown) [Example 2, 2-ethylhexyl 1-methyl-5-oxopyrrolidine-3-carboxylate] are within 1.5-fold of each other in “Tind (time from attainment of 4° C. until first gas absorption)” value (“Tind” for short): 15.3 h for the first, 11.5 h for the second.

CN1CC(C(=O)OCC(CO)(CO)COC(=O)C2CC(=O)N(C)C2)CC1=O (stereo not shown) [Example 4, pentaerythritol di(1-methyl-5-oxopyrrolidine-3-carboxylate)] and CN1CC(C(=O)OCC(COC(=O)C2CC(=O)N(C)C2)OC(=O)C2CC(=O)N(C)C2)CC1=O (stereo not shown) [Example 3, glyceryl tri(1-methyl-5-oxopyrrolidine-3-carboxylate)] are within 1.5-fold of each other in “Tind” value: 11.4 h for the first, 12.0 h for the second.

CCCCOCCOCCOCCOC(=O)C1CC(=O)N(C)C1 (stereo not shown) [Example 6, butyltriglycol 1-methyl-5-oxopyrrolidine-3-carboxylate] and CCCCC(CC)COC(=O)C1CC(=O)N(CC(C)C)C1 (stereo not shown) [Example 11, 2-ethylhexyl 1-isobutyl-5-oxopyrrolidine-3-carboxylate] are within 1.5-fold of each other in “Tind” value: 13.1 h for the first, 17.5 h for the second.

CCCCOCCOCCOCCOC(=O)C1CC(=O)N(CC(C)C)C1 (stereo not shown) [Example 15, butyltriglycol 1-isobutyl-5-oxopyrrolidine-3-carboxylate] and CC(C)CN1CC(C(=O)OCC(COC(=O)C2CC(=O)N(CC(C)C)C2)OC(=O)C2CC(=O)N(CC(C)C)C2)CC1=O (stereo not shown) [Example 12, glyceryl tri(1-isobutyl-5-oxopyrrolidine-3-carboxylate)] are within 1.5-fold of each other in “Tind” value: 16.1 h for the first, 18.1 h for the second.

CC(C)COC(=O)C1CC(=O)N(C)C1 (stereo not shown) [Example 1, isobutyl 1-methyl-5-oxopyrrolidine-3-carboxylate] and CN1CC(C(=O)OCC(CO)(COCC(CO)(COC(=O)C2CC(=O)N(C)C2)COC(=O)C2CC(=O)N(C)C2)COC(=O)C2CC(=O)N(C)C2)CC1=O (stereo not shown) [Example 5, dipentaerythrityl tetra(1-methyl-5-oxopyrrolidine-3-carboxylate)] are within 1.5-fold of each other in “Tind” value: 10.9 h for the first, 10.0 h for the second.

CC(C)CN1CC(C(=O)OCC(CO)(CO)COC(=O)C2CC(=O)N(CC(C)C)C2)CC1=O (stereo not shown) [Example 13, pentaerythrityl di(1-isobutyl-5-oxopyrrolidine-3-carboxylate)] and CC(C)COC(=O)C1CC(=O)N(CC(C)C)C1 (stereo not shown) [Example 10, isobutyl 1-isobutyl-5-oxopyrrolidine-3-carboxylate] are within 1.5-fold of each other in “Tind” value: 16.9 h for the first, 16.1 h for the second.

assay: Agglomerate inhibition in stirred autoclave (water/white spirit/natural gas); details: 5000 ppm based on water phase; water and white spirit 1:2; 50 bar; 500 rpm; 4° C.
Procedure: as §1, §2
In order to test the action as agglomerate inhibitors, the test autoclave used above was initially charged with water and white spirit (20% of the volume in a ratio of 1:2) and, based on the water phase, 5000 ppm of the particular additive were added.
At an autoclave pressure of 50 bar and a stirrer speed of 500 rpm, the temperature was cooled from initially 20° C. within 3 hours to 4° C., then the autoclave was stirred at 4° C. for 18 hours and heated up again. In the course of this, the agglomeration time up to occurrence of gas hydrate agglomerates and the torque which occurred on the stirrer at that time were measured, the latter being a measure of the agglomeration of the gas hydrates.
The comparative substance employed was a commercially available antiagglomerant (quaternary ammonium salt).

Going from CCCCCCCC/C=C\CCCCCCCCN1CC(C(=O)OCC(COC(=O)C2CC(=O)N(CCCCCCCC/C=C\CCCCCCCC)C2)OC(=O)C2CC(=O)N(CCCCCCCC/C=C\CCCCCCCC)C2)CC1=O (stereo not shown) [Example 21, glyceryl tri(1-oleyl-5-oxopyrrolidine-3-carboxylate)] to CCCCCCCC/C=C\CCCCCCCCN1CC(C(=O)OCC(CC)CCCC)CC1=O (stereo not shown) [Example 20, 2-ethylhexyl 1-oleyl-5-oxopyrrolidine-3-carboxylate], the “Mmax (torque on the stirrer)” value rises from 2.0 Ncm to 2.1 Ncm.

Going from “(oleyl alcohol+5 EO) 1-methyl-5-oxopyrrolidine-3-carboxylate [Example 7]” to CCCCCCCC/C=C\CCCCCCCCN1CC(C(=O)OCC(CO)(CO)COC(=O)C2CC(=O)N(CCCCCCCC/C=C\CCCCCCCC)C2)CC1=O (stereo not shown) [Example 22, pentaerythrityl di(1-oleyl-5-oxopyrrolidine-3-carboxylate)], the “Mmax (torque on the stirrer)” value rises from 0.9 Ncm to 1.9 Ncm.

Compared with CCCCCCCC/C=C\CCCCCCCCN1CC(C(=O)OCC(C)C)CC1=O (stereo not shown) [Example 19, isobutyl 1-oleyl-5-oxopyrrolidine-3-carboxylate], “(oleyl alcohol+5 EO) 1-isobutyl-5-oxopyrrolidine-3-carboxylate [Example 16]” is lower in “Mmax (torque on the stirrer)” value: 1.2 Ncm for the first, 1.0 Ncm for the second.

With CCCCCCCC/C=C\CCCCCCCCN1CC(C(=O)OCC(CO)(COCC(CO)(COC(=O)C2CC(=O)N(CCCCCCCC/C=C\CCCCCCCC)C2)COC(=O)C2CC(=O)N(CCCCCCCC/C=C\CCCCCCCC)C2)COC(=O)C2CC(=O)N(CCCCCCCC/C=C\CCCCCCCC)C2)CC1=O (stereo not shown) [Example 23, dipentaerythrityl tetra(1-oleyl-5-oxopyrrolidine-3-carboxylate)] the “Mmax (torque on the stirrer)” value was 2.0 Ncm.

CCCCCCCC/C=C\CCCCCCCCN1CC(C(=O)OCC(COC(=O)C2CC(=O)N(CCCCCCCC/C=C\CCCCCCCC)C2)OC(=O)C2CC(=O)N(CCCCCCCC/C=C\CCCCCCCC)C2)CC1=O (stereo not shown) [Example 21, glyceryl tri(1-oleyl-5-oxopyrrolidine-3-carboxylate)] and CCCCCCCC/C=C\CCCCCCCCN1CC(C(=O)OCC(CC)CCCC)CC1=O (stereo not shown) [Example 20, 2-ethylhexyl 1-oleyl-5-oxopyrrolidine-3-carboxylate] are within 1.5-fold of each other in “Tagg (agglomeration time up to occurrence of gas hydrate agglomerates)” value: 2.9 h for the first, 3.5 h for the second.

Going from “(oleyl alcohol+5 EO) 1-methyl-5-oxopyrrolidine-3-carboxylate [Example 7]” to CCCCCCCC/C=C\CCCCCCCCN1CC(C(=O)OCC(CO)(CO)COC(=O)C2CC(=O)N(CCCCCCCC/C=C\CCCCCCCC)C2)CC1=O (stereo not shown) [Example 22, pentaerythrityl di(1-oleyl-5-oxopyrrolidine-3-carboxylate)], the “Tagg (agglomeration time up to occurrence of gas hydrate agglomerates)” value falls from 6.5 h to 3.8 h (1.7-fold).

CCCCCCCC/C=C\CCCCCCCCN1CC(C(=O)OCC(C)C)CC1=O (stereo not shown) [Example 19, isobutyl 1-oleyl-5-oxopyrrolidine-3-carboxylate] and “(oleyl alcohol+5 EO) 1-isobutyl-5-oxopyrrolidine-3-carboxylate [Example 16]” are within 1.5-fold of each other in “Tagg (agglomeration time up to occurrence of gas hydrate agglomerates)” value: 6.0 h for the first, 5.9 h for the second.

For CCCCCCCC/C=C\CCCCCCCCN1CC(C(=O)OCC(CO)(COCC(CO)(COC(=O)C2CC(=O)N(CCCCCCCC/C=C\CCCCCCCC)C2)COC(=O)C2CC(=O)N(CCCCCCCC/C=C\CCCCCCCC)C2)COC(=O)C2CC(=O)N(CCCCCCCC/C=C\CCCCCCCC)C2)CC1=O (stereo not shown) [Example 23, dipentaerythrityl tetra(1-oleyl-5-oxopyrrolidine-3-carboxylate)], the “Tagg (agglomeration time up to occurrence of gas hydrate agglomerates)” value was 3.8 h.

assay: Biodegradability to OECD 306; details: not given

Compared with CN1CC(C(=O)OCC(COC(=O)C2CC(=O)N(C)C2)OC(=O)C2CC(=O)N(C)C2)CC1=O (stereo not shown) [Example 3, glyceryl tri(1-methyl-5-oxopyrrolidine-3-carboxylate)], CC(C)CN1CC(C(=O)OCC(COC(=O)C2CC(=O)N(CC(C)C)C2)OC(=O)C2CC(=O)N(CC(C)C)C2)CC1=O (stereo not shown) [Example 12, glyceryl tri(1-isobutyl-5-oxopyrrolidine-3-carboxylate)] is lower in “Biodegradability 28 days (OECD 306)” value: 90 for the first, 85 for the second.
